Test results reported in patent US12052991B2, “Substituted pyridinyloxybenzenes and salts thereof and use thereof as herbicidal agents” (Bayer Aktiengesellschaft, priority 2018, dated 2024).

Tests used:
Type in all cases: in vivo
[1] = tested on: harmful plants ABUTH, AMARE, ECHCG, LOLRI, MATIN, POAAN, SETVI, STEME, ALOMY, DIGSA, KCHSC and VERPE; test: Herbicidal post-emergence action, summary of Tables B1-B12; details: application rate of 1280 or 320 g of active ingredient per hectare; summary in words
Summary of the method: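 Greenhouse weeds in sandy loam treated post-emergence at the one-leaf stage, 2–3 weeks after sowing, with WP or EC formulations sprayed with 0.5% additive at 600 L/ha water, 1280 or 320 g/ha. Damage rated visually after about 3 weeks versus untreated controls (0% = like control, 100% = dead).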

[2] = tested on: Echinochloa crus-galli (ECHCG); test: Herbicidal post-emergence action (Table B1); details: 1280 g/ha; rated visually after about 3 weeks; 100% = plants have died, 0% = like control plants
Summary of the method: (§1)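 Weeds grown from seed in sandy loam in the greenhouse were sprayed at the one-leaf stage, 2 to 3 weeks after sowing, with WP or EC formulations in water plus 0.5% additive at 600 L/ha. Rates corresponded to 1280 or 320 g/ha; damage was rated visually versus untreated controls after about 3 weeks.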

[3] = tested on: Alopecurus myosuroides (ALOMY); test: Herbicidal post-emergence action (Table B9); details: 1280 g/ha; rated visually after about 3 weeks; 100% = plants have died, 0% = like control plants
Summary of the method: as §1

[4] = tested on: Matricaria inodora (MATIN); test: Herbicidal post-emergence action (Table B7); details: rated visually after about 3 weeks, 100% = plants have died, 0% = like control plants
Description: Seeds of mono- and dicotyledonous weed plants were placed in plastic pots in sandy loam soil (doubly sown with in each case one species of mono- or dicotyledonous weed plants per pot), covered with soil and cultivated in a greenhouse under controlled growth conditions. 2 to 3 weeks after sowing, the test plants were treated at the one-leaf stage. The compounds of the invention, formulated in the form of wettable powders (WP) or as emulsion concentrates (EC), were applied onto the green parts of the plants as aqueous suspension or emulsion with addition of 0.5% additive at a water application rate of 600 liters per hectare (converted). After the test plants had been kept in the greenhouse under optimum growth conditions for about 3 weeks, the activity of the preparations was rated visually in comparison to untreated controls. For example, 100% activity=the plants have died, 0% activity=like control plants. Tables B1 to B12 below show the effects of selected compounds of the general formula (I) according to Table 1 on various harmful plants and an application rate corresponding to 1280 or 320 g/ha, which were obtained by the experimental procedure mentioned above.

Veronica persica (VERPE) [5] = test: Herbicidal post-emergence action (Table B12); details: visual rating about 3 weeks after treatment, 100% = plants have died, 0% = like control plants
Summary of the method: as §1

Setaria viridis (SETVI) = test: Herbicidal pre-emergence action, test C (Table C4); details: dosage 1280 g/ha; visual scoring after about 3 weeks; 100% = plants have died, 0% = like control plants
Summary of the method: (§2)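 Pre-emergence soil-surface spray, 1280 or 320 g/ha, WP/EC in water with 0.5% additive, 600 L/ha. Sandy loam pots, doubly sown. Greenhouse ~3 weeks; visual % effect vs untreated (0% = like control, 100% = dead).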

Stellaria media (STEME) = test: Herbicidal post-emergence action (Table B8); details: dosage 1280 g/ha; visual rating about 3 weeks after treatment; 100% = plants have died, 0% = like control plants
Summary of the method: as §1

[6] = tested on: Alopecurus myosuroides (ALOMY); test: Herbicidal pre-emergence action, test C (Table C9); details: dosage 1280 g/ha; visual scoring after about 3 weeks; 100% = plants have died, 0% = like control plants
Summary of the method: as §2

[7] = tested on: Digitaria sanguinalis (DIGSA); test: Herbicidal pre-emergence action, test C (Table C10); details: visual scoring after about 3 weeks, 100% = plants have died, 0% = like control plants
Summary of the method: as §2

[8] = tested on: harmful plants ABUTH, AMARE, ECHCG, LOLRI, MATIN, POAAN, SETVI, STEME, ALOMY, DIGSA, KCHSC and VERPE; test: Herbicidal pre-emergence action (test C), summary of Tables C1-C12; details: application rate of 1280 or 320 g of active ingredient per hectare; summary in words
Summary of the method: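 Pre-emergence pot test in sandy loam: WP or EC formulations were sprayed onto the covering soil with 0.5% additive at 600 L/ha water, at 1280 or 320 g/ha. Plants were kept in the greenhouse, and activity was rated visually about 3 weeks later as % versus untreated controls (100% = dead).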

[9] = tested on: Amaranthus retroflexus (AMARE); test: Herbicidal post-emergence action (Table B6); details: visual rating about 3 weeks after treatment, 100% = plants have died, 0% = like control plants
Summary of the method: as §1

[10] = tested on: Amaranthus retroflexus (AMARE); test: Herbicidal pre-emergence action, test C (Table C6); details: visual scoring after about 3 weeks, 100% = plants have died, 0% = like control plants
Summary of the method: as §2

Poa annua (POAAN) [11] = test: Herbicidal post-emergence action (Table B3); details: rated visually after about 3 weeks, 100% = plants have died, 0% = like control plants
Summary of the method: as §1

[12] = tested on: Abutilon theophrasti (ABUTH); test: Herbicidal post-emergence action (Table B5); details: rated visually after about 3 weeks, 100% = plants have died, 0% = like control plants
Summary of the method: as §1

Veronica persica (VERPE) [13] = test: Herbicidal pre-emergence action, test C (Table C12); details: dosage 1280 g/ha, visual scoring vs untreated controls
Summary of the method: as §2

Poa annua (POAAN) [14] = test: Herbicidal pre-emergence action, test C (Table C3); details: visual scoring after about 3 weeks, 100% = plants have died, 0% = like control plants
Summary of the method: as §2

Clc1ccc(Oc2ccccc2-c2ccc(Cl)cn2)nc1 [Example 1-75]
herbicidal activity against the harmful plants of Tables B1-B12 in post-emergence treatment [1]: very good herbicidal activity
Post-emergence action against Echinochloa crus-galli (ECHCG) [2]: 100%
Post-emergence action against Alopecurus myosuroides (ALOMY) [3]: 90%
Post-emergence action against Matricaria inodora (MATIN) ([4]; 1280 g/ha): 100%
Post-emergence action against Veronica persica (VERPE) (Veronica persica (VERPE) [5]; dosage 1280 g/ha): 100%

Fc1cc(Cl)cnc1Oc1ccccc1-c1ccc(Cl)cn1 [Example 1-74]
Pre-emergence action against Setaria viridis (SETVI) (Setaria viridis (SETVI)): 100%
herbicidal activity against the harmful plants of Tables B1-B12 in post-emergence treatment [1]: very good herbicidal activity
Post-emergence action against Stellaria media (STEME) (Stellaria media (STEME)): 90%
Pre-emergence action against Alopecurus myosuroides (ALOMY) [6]: 100%
Pre-emergence action against Digitaria sanguinalis (DIGSA) ([7]; dosage 320 g/ha): 90%
Pre-emergence action against Digitaria sanguinalis (DIGSA) ([7]; dosage 1280 g/ha): 100%
herbicidal activity against the harmful plants of Tables C1-C12 in pre-emergence treatment [8]: very good herbicidal activity
Post-emergence action against Amaranthus retroflexus (AMARE) ([9]; dosage 320 g/ha): 100%
Post-emergence action against Amaranthus retroflexus (AMARE) ([9]; dosage 1280 g/ha): 100%
Pre-emergence action against Amaranthus retroflexus (AMARE) ([10]; dosage 320 g/ha): 90%
Pre-emergence action against Amaranthus retroflexus (AMARE) ([10]; dosage 1280 g/ha): 90%
Post-emergence action against Poa annua (POAAN) (Poa annua (POAAN) [11]; 320 g/ha): 100%
Post-emergence action against Poa annua (POAAN) (Poa annua (POAAN) [11]; 1280 g/ha): 100%
Post-emergence action against Abutilon theophrasti (ABUTH) ([12]; 320 g/ha): 90%
Post-emergence action against Abutilon theophrasti (ABUTH) ([12]; 1280 g/ha): 100%
Pre-emergence action against Veronica persica (VERPE) (Veronica persica (VERPE) [13]): 90%
Pre-emergence action against Poa annua (POAAN) (Poa annua (POAAN) [14]; dosage 320 g/ha): 100%
Pre-emergence action against Poa annua (POAAN) (Poa annua (POAAN) [14]; dosage 1280 g/ha): 100%
Post-emergence action against Matricaria inodora (MATIN) ([4]; 320 g/ha): 100%
Post-emergence action against Matricaria inodora (MATIN) ([4]; 1280 g/ha): 100%
Post-emergence action against Veronica persica (VERPE) (Veronica persica (VERPE) [5]; dosage 320 g/ha): 100%
Post-emergence action against Veronica persica (VERPE) (Veronica persica (VERPE) [5]; dosage 1280 g/ha): 100%
